Experimental data published in publication PMC7602980 (Biomolecules, 2020).
Where “and” joins values, the source holds several entries; their conditions need not be identical. Identical values can stand only once.

Key:
[1] = target: T1, CaM (Rattus norvegicus, UniProt P0DP29); test: NMR titration (15N-HSQC) of 15N-CaM with Cx43CL136-158 peptides; type: binding; conditions: result in words
T1 construct: made in house; host or cells: pAED4 vector
Description: (§4) All polypeptides were equilibrated in 1x phosphate-buffered saline (1x PBS) at pH 5.8 or KCl 100 mM, CaCl2 5 mM at pH 6.5 using NAP-5 columns (GE Healthcare, #17-0853-01, Chicago, MI, USA) by dialysis in Slide-A-Lyzer G2 Dialysis Cassettes, 2K MWCO (Thermo Scientific, #87717, Waltham, MA, USA).
(§5) NMR data were acquired at 7 °C or 25 °C using a 600 MHz Varian INOVA (Agilent Technologies, Santa Clara, CA, USA) or a 600 MHz Bruker Avance-III HD spectrometer (Bruker, Billerica, MA, USA) outfitted with a cryoprobe at the NMR Facility of the University of Nebraska Medical Center. […] NMR spectra were processed using NMRPipe (IBBR, Rockville, MD, USA) [46] and analyzed using NMRView (https://nmrfx.org) [47].
(§6) Data were acquired with 1024 complex points in the direct dimension and 128 complex points in the indirect dimension. Chemical shift variations were calculated according to the formula Δσ = √((ΔδHN)^2 + (ΔδN/5)^2) and plotted as a function of ligand concentration. Dissociation constants (KD) were calculated by nonlinear fitting of the titration curves using GraphPad Prism 7.0 (GraphPad Software, La Jolla, CA, USA) and averaging at least six curves.

[2] = tested on: Cx43; test: Ionomycin treatment and Triton X-100 solubility assay, HeLa^Cx43 cells, Western blot; type: cell-based; conditions: 100 nM PMA, 1 μM ionomycin, 30 min; insoluble fraction
Excerpt: (§1) Briefly, 80% confluent parental HeLa cells were transfected with Cx43 WT or ODDD mutations containing pD2529 (puromycin resistant) plasmid using Lipofectamine 2000 (Invitrogen, # 11668019) at a 1:1 (reagent:plasmid) ratio in OptiMem (Life Technologies, #31985070, Carlsbad, CA, USA) under antibiotic free conditions. After re-plating and once colonies were formed, Western blot and immunofluorescence were used to screen the clones (α-Cx43, Sigma #6219, 1:10,000, MilliporeSigma, St. Louis, MO, USA).
After reaching 100% confluency, HeLa^Cx43 cells seeded on 10-cm dishes were incubated in presence of 1 μM ionomycin (Sigma #I0634) for 2 min for equilibration and then either treated with 1 μM ionomycin only as control, or 1 μM ionomycin plus 20 mM Ca^2+, 100 nM PMA (Sigma, # P1585), or 20 mM Ca^2+/100 nM PMA and incubated for 30 min.
The Triton X-100 solubility assay was modified from a method described previously. […] Protein lysate content was quantified by the BCA assay and normalized. […] After analysis of the insoluble fraction by Western blot, quantification from three independent replicates was measured using the iBright Analysis Software (version 3.1.3, Thermo Scientific) and statistical analysis was performed in GraphPad Prism 8.0 (San Diego, CA, USA) using the Ordinary one way Anova calculation. p-values < 0.05 were considered statistically significant.

[3] = tested on: HeLa cells; test: Scrape loading dye transfer, stably transfected HeLa cells; type: cell-based; conditions: cell layers past scrape; 100% confluent HeLa
Excerpt: as §1
Cell communication was evaluated as previously described. Briefly, stably transfected HeLa cells described above were grown to 100% confluency. Media was replaced with pre-warmed dye transfer solution (0.25% Lucifer yellow CH (Life Technologies # L453) and 0.1% Texas Red 1 × 10^4 (Life Tech # D1863) in 1× PBS at 37 °C) and cells were immediately scrape-loaded with a fine edged micro-scalpel by three longitudinal scratches. After incubating at 37 °C for 4 min, cells were rinsed with 1× PBS and further incubated in antibiotic free media for 6 min. Dye spread was then stopped by washing the cells with 1× PBS containing 1 mM CaCl2 and 1 mM MgCl2. Cells were finally fixed, DAPI stained, mounted, and imaged.

[4] = tested on: HeLa cells; test: In situ Triton X-100 extraction and immunofluorescence, stably transfected HeLa cells; type: cell-based; conditions: 1% Triton X-100 in situ extraction
Excerpt: as §1
After reaching 100% confluency, cells seeded on glass coverslips were fixed in 4% paraformaldehyde (1× PBS, pH 7.4) and then blocked in 5% goat serum (1× TBS, 0.4% Triton X-100). Coverslips were then incubated with the appropriate primary antibody (α-Cx43, Sigma #6219, 1:200) diluted in blocking buffer overnight at 4 °C. Fluorescent secondary antibody (α-Rb Alexa Fluor 488, Cell Signaling #4412, 1:300) was then applied, followed by DAPI (100 ng/mL in 1× TBS). Coverslips were mounted on a drop of SlowFade anti-fade (Life Technologies, Carlsbad, CA, USA # S36972), sealed with clear nail polish, and imaged.
The in situ detergent extraction was previously described. […]

[5] = Circular dichroism (far UV), secondary structure; type: physicochemical; conditions: for CD structure with TFE: 1× PBS pH 5.8, up to 25% TFE, result in words
Description: CD experiments were performed on a JASCO J-815 CD spectrometer at 7 °C in the far UV (260–190 nm) with a 0.1 mm path length quartz cell, using a bandwidth of 1 nm, an integration time of 1 s, and a scan rate of 50 nm/min. Each spectrum is the average of 5 scans. All spectra were corrected by subtracting the solvent spectrum acquired under identical conditions. The protein concentration for each sample was 200–500 μM in 1× PBS at pH 5.8. For CD data collection in presence of TFE, 10× PBS was used to keep the final sample at a constant buffer concentration corresponding to 1x PBS. All CD data were processed using the Spectra Analysis software of Jasco Manager Version 2 (Jasco, Easton, PA, USA).

[6] = pH 5.8; ref [14]; cited from earlier work
Excerpt: (§2) The CT plays a role in the trafficking, localization, and turnover of gap junction channels via numerous post-translational modifications and protein–protein interactions. The CT is also important for regulating junctional conductance and voltage sensitivity. […] Conversely, only a few protein partners have been identified to directly bind the CL. For example, in the ...

[7] = tested on: Cx43 gap junction channels; conditions: peptide in patch pipette; ref [15]; cited from earlier work
Excerpt: as §2

[8] = tested on: Cx43CT domain; conditions: ref [14]; cited from earlier work
Excerpt: as §2

[9] = tested on: Cx43CT236-382; test: NMR titration (15N-HSQC) of 15N-Cx43CT236-382 with CaM; type: binding, rat; conditions: Ca^+2 not present, 10 mM EGTA
Description: as §4, §5, §6

[10] = tested on: Src; test: In vitro kinase assay, Src phosphorylation of GST-Cx43CT236-382; type: biochemical; conditions: CaM ~90% saturation of Cx43CT; 4 h RT; Western blot Cx43 pY265; three independent experiments
Description: (§3) After incubation of 4 h at RT for Src, 6 h at 30 °C for ERK1, and 6 h at RT for ERK2, phosphorylation levels of the Cx43CT were detected by Western blot using Cx43 specific anti-phospho antibodies. Three independent experiments were performed and phosphorylation levels were quantified using the iBright Analysis Software and statistical analysis were performed in GraphPad Prism 8.0 using a Student’s t-test. p-values < 0.05 were considered statistically significant.

[11] = tested on: ERK2; test: In vitro kinase assay, ERK2 phosphorylation of GST-Cx43CT236-382; type: biochemical; conditions: CaM ~90% saturation of Cx43CT; 6 h RT; Western blot pS279/S282; three independent experiments
Description: as §3

[12] = tested on: ERK1; test: In vitro kinase assay, ERK1 phosphorylation of GST-Cx43CT236-382; type: biochemical; conditions: CaM ~90% saturation of Cx43CT; 6 h 30 °C; Western blot pS279/S282; three independent experiments; Student's t-test
Description: as §3

With `CC[C@H](C)[C@H](NC(=O)CNC(=O)[C@H](Cc1ccc(O)cc1)NC(=O)[C@@H](N)CCCCN)C(=O)N[C@@H](CCC(=O)O)C(=O)N[C@@H](CCC(=O)O)C(=O)N[C@@H](Cc1c[nH]cn1)C(=O)NCC(=O)N[C@@H](CCCCN)C(=O)N[C@H](C(=O)N[C@@H](CCCCN)C(=O)N[C@H](C(=O)N[C@@H](CCCNC(=N)N)C(=O)NCC(=O)NCC(=O)N[C@@H](CC(C)C)C(=O)N[C@@H](CC(C)C)C(=O)N[C@@H](CCCNC(=N)N)C(=O)N[C@H](C(=O)N[C@@H](Cc1ccc(O)cc1)C(=O)N[C@H](C(=O)N[C@H](C(=O)N[C@@H](CO)C(=O)O)[C@@H](C)CC)[C@@H](C)CC)[C@@H](C)O)[C@@H](C)O)C(C)C` [M147T] the “KD compared with control (WT)” value [1] was “little-to-no difference in KD”.
With `CCCCCCCCCCCCCC(=O)O[C@@H]1[C@@H](C)[C@@]2(O)[C@@H](C=C(CO)C[C@]3(O)C(=O)C(C)=C[C@@H]23)[C@@H]2C(C)(C)[C@]12OC(C)=O` [PMA] the Y265 phosphorylation [2] was “increasing Y265 phosphorylation” and the “level of total Cx43 at the plaque” value [2] was “decreased the level of total Cx43 at the plaque”.
With `CC[C@H](C)[C@H](NC(=O)CNC(=O)[C@H](Cc1ccc(O)cc1)NC(=O)[C@@H](N)CCCCN)C(=O)N[C@@H](CCC(=O)O)C(=O)N[C@@H](CCC(=O)O)C(=O)N[C@@H](Cc1c[nH]cn1)C(=O)NCC(=O)N[C@@H](CCCCN)C(=O)N[C@H](C(=O)N[C@@H](CCCCN)C(=O)N[C@@H](CCSC)C(=O)N[C@@H](CCC(N)=O)C(=O)NCC(=O)NCC(=O)N[C@@H](CC(C)C)C(=O)N[C@@H](CC(C)C)C(=O)N[C@@H](CCCNC(=N)N)C(=O)N[C@H](C(=O)N[C@@H](Cc1ccc(O)cc1)C(=O)N[C@H](C(=O)N[C@H](C(=O)N[C@@H](CO)C(=O)O)[C@@H](C)CC)[C@@H](C)CC)[C@@H](C)O)C(C)C` [R148Q] the “KD compared with control (WT)” value [1] was “little-to-no difference in KD”.
With `CC[C@H](C)[C@H](NC(=O)CNC(=O)[C@H](Cc1ccc(O)cc1)NC(=O)[C@@H](N)CCCCN)C(=O)N[C@@H](CCC(=O)O)C(=O)N[C@@H](CCC(=O)O)C(=O)N[C@@H](Cc1c[nH]cn1)C(=O)NCC(=O)N[C@@H](CCCCN)C(=O)N[C@H](C(=O)N[C@@H](CCCCN)C(=O)N[C@@H](CCSC)C(=O)N[C@@H](CCCNC(=N)N)C(=O)NCC(=O)NCC(=O)N[C@@H](CC(C)C)C(=O)N[C@@H](CC(C)C)C(=O)N[C@@H](CCCNC(=N)N)C(=O)N[C@@H](C)C(=O)N[C@@H](Cc1ccc(O)cc1)C(=O)N[C@H](C(=O)N[C@H](C(=O)N[C@@H](CO)C(=O)O)[C@@H](C)CC)[C@@H](C)CC)C(C)C` [T154A] the “KD compared with control (WT)” value [1] was “little-to-no difference in KD”.
In the case of “Cx43 WT: Cx43 wild type stably expressed in HeLa cells”, the “Lucifer Yellow dye transfer” value [3] is reported as “greater than a fifth-order dye transfer” and the “Triton X-100 solubility / localization” value [4] is reported as “only a small amount of Cx43 washed away in the presence of Triton X-100”.
For “Cx43CL100-155: recombinant rat full-length Cx43CL domain, residues M100-Y155 (MRKEEKLNKKEEELKVAQTDGVNVEMHLKQIEIKKFKYGIEEHGKVKMRGGLLRTY; cytoplasmic loop; UniProt P08050 100-155, looked up, fragment)”, the “CD structure with TFE” value [5] was “able to form α-helical structure” and the α-helical content ([5]; 1× PBS, pH 5.8, 7 °C, 200–500 μM, estimated by comparing previous data) was “less than 5%”.
With “Cx43CL100-158: recombinant rat Cx43CL construct, residues M100-S158 (MRKEEKLNKKEEELKVAQTDGVNVEMHLKQIEIKKFKYGIEEHGKVKMRGGLLRTYIIS; cytoplasmic loop; UniProt P08050 100-158, looked up, fragment)” the “CD structure with TFE” value [5] was “did not elicit the same degree of α-helical content as Cx43CL100-155”.
In the case of “Cx43L1: synthetic peptide, Cx43CL residues M100-A116 (MRKEEKLNKKEEELKVA; UniProt P08050 100-116, looked up, fragment)”, the “CD structure with TFE” value [5] is reported as “at 25% of TFE, the spectrum was still typical of a predominantly random coiled protein”.
In the case of “Cx43L2: synthetic peptide, Cx43CL residues D119-K144”, the “CD structure with TFE” value [5] is listed as “clearly adopted an α-helical structure”, the secondary structure [6] is listed as “two short α-helices” and the “effect on single channel behaviour” value [7] is listed as “interfered with the occurrence of the residual state and prolonged open time”. For the same molecule, the “affinity for the CT at pH 5.8 compared with pH 7.4” value [8] was “greater than at pH 7.4”.
In the case of calmodulin [CaM], the “interaction of CaM with Cx43CT without Ca^2+” value [9] is reported as “the interaction is lost when Ca^+2 is not present”, the “inhibition of Src phosphorylation of Cx43CT” value [10] is reported as ~ 90% and 90% and the “inhibition of ERK2 phosphorylation of Cx43CT” value [11] is reported as ~ 30% and 30%. For the same molecule, the “effect on ERK1 phosphorylation of Cx43CT” value [12] was “not statistically significant”.
